Eight compounds from patent US8003648B2, “Heterocyclic GPR40 modulators” (Amgen Inc., priority 2006, dated 2011) can be followed below.

As usually defined, the EC50 is the concentration needed to bring the measured effect to its halfway point. A lower EC50 goes with an effect from little substance.

For the assay, the target named is T1, human GPR40 (Homo sapiens, UniProt O14842).
T1 construct: host or cells: CHO cells
T1 sequence (O14842 whole entry): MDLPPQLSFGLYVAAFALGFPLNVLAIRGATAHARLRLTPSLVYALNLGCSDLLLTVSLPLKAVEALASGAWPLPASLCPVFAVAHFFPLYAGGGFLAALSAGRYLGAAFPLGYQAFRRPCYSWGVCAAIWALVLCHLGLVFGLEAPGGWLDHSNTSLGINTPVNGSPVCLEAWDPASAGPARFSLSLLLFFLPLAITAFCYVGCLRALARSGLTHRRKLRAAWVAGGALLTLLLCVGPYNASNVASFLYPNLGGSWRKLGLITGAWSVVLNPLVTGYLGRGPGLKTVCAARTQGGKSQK
Put plainly: Cell-based aequorin assay using human GPR40. The note with it: activation of human GPR40; CHO cells stably transfected with GPR40 and Aequorin; 0.01% HSA; aequorin luminescence. How it is done: Cell-based aequorin assays were employed to characterize the modulatory activity of compounds on the GPR40 signaling pathway. In an exemplary assay, CHO cells were stably transfected with both GPR40 and Aequorin (Euroscreen). Cells were detached from the tissue culture dish with 2 mL of trypsin (0.25% (w/v)). Trypsinization was halted with 28 mL of Hanks Buffered Salt Solution containing 20 mM Hepes (H/HBSS) and 0.01% fatty acid-free human serum albumin (HSA). Coelantrazine is added to 1 ug/mL, and the cells were incubated for 2 hours at room temperature. Compounds were dissolved in DMSO for preparation of 10 mM stock solutions. Compounds were diluted in H/HBSS containing 0.01% HSA. Serial dilutions of the test compounds were prepared to determine dose response.
Aequorin luminescence measurements were made using an EG&G Berthold 96-well luminometer, and the response was measured over a 20 second interval after cells and compounds were mixed. The maximum relative light units was plotted to determine dose response. The EC50 (effective concentration to reach 50% maximal response) was determined from the dose response plot.
Table 1 presents representative data (EC50 values) obtained for exemplary compounds of the invention for the activation of human GPR40. […]
`Cc1nc(-c2ccc(C(C)(C)C)cc2)sc1COc1ccc([C@H](CC(=O)O)c2ccon2)cc1` [Example 76] yielded an EC50 of 10 to 100 nM.

Compound `CCCCc1ccc(-c2nc(C)c(COc3ccc([C@H](CC(=O)O)c4ccon4)cc3)s2)cc1` [Example 77] showed an EC50 of 10 to 100 nM.

The compound `Cc1nc(-c2ccc(CC(C)C)cc2)sc1COc1ccc([C@H](CC(=O)O)c2ccon2)cc1` [Example 78] came in with an EC50 of 10 to 100 nM.

For `CCCCOc1ccc(-c2nc(C)c(COc3ccc([C@H](CC(=O)O)c4ccon4)cc3)s2)cc1Cl` [Example 79], the EC50 was 10 to 100 nM.

For `CCCOc1c(C)cc(-c2nc(C)c(COc3ccc([C@H](CC(=O)O)c4ccon4)cc3)s2)cc1C` [Example 80], the concentration giving a half-maximal response (EC50) was in the range of 10 to 100 nM.

`Cc1nc(-c2ccc(OC(C)C)c(Cl)c2)sc1COc1ccc([C@H](CC(=O)O)c2ccon2)cc1` [Example 81]: the concentration for a half-maximal effect (EC50) was 10 to 100 nM.

Consider `CC12CCC(c3nc(COc4ccc([C@H](CC(=O)O)c5ccon5)cc4)cnc31)C2(C)C` (some centres unmarked) [Example 82], for which the concentration for a half-maximal effect (EC50) was 1000 to 10000 nM.

With `CC12CCC(c3ncc(COc4ccc([C@H](CC(=O)O)c5ccon5)cc4)nc31)C2(C)C` (some centres unmarked) [Example 83], the EC50 is 1000 to 10000 nM.
